The conditions of the data set: Liquid, Closed cell (Static) method.

Molecules are shown by their SMILES. ± gives the expanded uncertainty stated by the source.

For orientation: vapor or sublimation pressure means the pressure of vapour in equilibrium with the condensed phase.

Take `FC(F)(F)C(F)(F)F` [hexafluoroethane]: the “vapor or sublimation pressure” value (189.31 K) amounted to 73.9 ± 4 kPa, the “vapor or sublimation pressure” value (192.63 K) stood at 88.5 ± 4 kPa, the “vapor or sublimation pressure” value (247.63 K) turned out to be 883 ± 4.8 kPa and the “vapor or sublimation pressure” value (252.8 K) stood at 1038.2 ± 5 kPa.

The values above are taken from the NIST ThermoML archive (doi:10.1016/j.fluid.2005.12.004).
